Read-outs that look alike come from different tables or passages of the source.
Tests used:
Cx50 GJ channels = Cx50 GJ channels (Mus musculus, UniProt P28236); format: cell-based; conditions: for effect on Cx50 junctional current: 10 μM; for IC50 Cx50 (μM): Table A1, alcohols, amines, nitriles and ureas; for Hill slope / Hill coefficient of Cx50 inhibition: fit to the Hill equation
[1] = target: channels built out of Cx36 (Homo sapiens, UniProt Q9UKL4); assay: Cx36 junctional current, dual whole-cell patch-clamp; format: cell-based; conditions: 10 μM
Cx46 GJ channels = Cx46 GJ channels (Rattus norvegicus, UniProt P29414); assay: Cx46 junctional current, dual whole-cell voltage-clamp in N2A cells; format: cell-based; conditions: 10 μM
Cx32 GJ channels = Cx32 GJ channels (Rattus norvegicus, UniProt P08033); assay: Cx32 junctional current, dual whole-cell voltage-clamp in N2A cells; format: cell-based; conditions: 10 μM
Sequence of Cx32 GJ channels (P08033 whole entry): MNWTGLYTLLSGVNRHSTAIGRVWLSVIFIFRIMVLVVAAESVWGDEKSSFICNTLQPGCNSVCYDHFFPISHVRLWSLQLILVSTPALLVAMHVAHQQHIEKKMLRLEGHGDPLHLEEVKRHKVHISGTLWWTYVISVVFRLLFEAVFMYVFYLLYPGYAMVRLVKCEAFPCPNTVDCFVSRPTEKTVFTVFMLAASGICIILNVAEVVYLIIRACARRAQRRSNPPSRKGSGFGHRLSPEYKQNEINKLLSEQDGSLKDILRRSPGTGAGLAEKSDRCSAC

hKCa3.1 = hKCa3.1 (Homo sapiens, UniProt O15554); assay: KCa3.1 current, whole-cell patch-clamp; format: cell-based
Sequence of hKCa3.1 (O15554 whole entry): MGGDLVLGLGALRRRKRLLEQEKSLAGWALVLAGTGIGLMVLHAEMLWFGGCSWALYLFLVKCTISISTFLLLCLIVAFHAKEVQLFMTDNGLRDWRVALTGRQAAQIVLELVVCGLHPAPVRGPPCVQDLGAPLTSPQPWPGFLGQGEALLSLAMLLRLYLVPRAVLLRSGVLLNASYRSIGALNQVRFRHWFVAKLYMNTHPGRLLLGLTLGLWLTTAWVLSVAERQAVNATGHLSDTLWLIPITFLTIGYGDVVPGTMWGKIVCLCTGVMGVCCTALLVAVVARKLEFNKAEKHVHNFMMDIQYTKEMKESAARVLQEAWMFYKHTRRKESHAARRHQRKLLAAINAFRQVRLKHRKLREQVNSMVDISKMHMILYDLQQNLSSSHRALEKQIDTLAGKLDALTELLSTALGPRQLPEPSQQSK

Cx26 GJ channels = Cx26 GJ channels (Rattus norvegicus, UniProt P21994); assay: Cx26 junctional current, dual whole-cell voltage-clamp in N2A cells; format: cell-based; conditions: 10 μM
Kv4.2 = Kv4.2 (Rattus norvegicus, UniProt Q63881); assay: Kv4.2 current, whole-cell patch-clamp; format: cell-based; conditions: read-out: Percentage of current inhibition, Kv4.2
Kv7.2/7.3 = Kv7.2/7.3 (Homo sapiens, UniProt O43525+O43526); assay: Kv7.2/7.3 current, whole-cell patch-clamp; format: cell-based; conditions: 10 μM
Kv1.1 = Kv1.1 (Mus musculus, UniProt P16388); assay: Kv1.1 current, whole-cell patch-clamp; format: cell-based; conditions: read-out: Percentage of current inhibition, Kv1.1
[2] = target: Cx45 gap junction channels (Homo sapiens, UniProt P36383); assay: Cx45 junctional current, dual whole-cell voltage-clamp; format: cell-based; conditions: 10 μM
Kv11.1 (hERG) = Kv11.1 (hERG) (Homo sapiens, UniProt Q12809); assay: Kv11.1; format: cell-based; conditions: HEK-293 cells stably expressing Kv11.1 (hERG)
Sequence of Kv11.1 (hERG) (Q12809 whole entry): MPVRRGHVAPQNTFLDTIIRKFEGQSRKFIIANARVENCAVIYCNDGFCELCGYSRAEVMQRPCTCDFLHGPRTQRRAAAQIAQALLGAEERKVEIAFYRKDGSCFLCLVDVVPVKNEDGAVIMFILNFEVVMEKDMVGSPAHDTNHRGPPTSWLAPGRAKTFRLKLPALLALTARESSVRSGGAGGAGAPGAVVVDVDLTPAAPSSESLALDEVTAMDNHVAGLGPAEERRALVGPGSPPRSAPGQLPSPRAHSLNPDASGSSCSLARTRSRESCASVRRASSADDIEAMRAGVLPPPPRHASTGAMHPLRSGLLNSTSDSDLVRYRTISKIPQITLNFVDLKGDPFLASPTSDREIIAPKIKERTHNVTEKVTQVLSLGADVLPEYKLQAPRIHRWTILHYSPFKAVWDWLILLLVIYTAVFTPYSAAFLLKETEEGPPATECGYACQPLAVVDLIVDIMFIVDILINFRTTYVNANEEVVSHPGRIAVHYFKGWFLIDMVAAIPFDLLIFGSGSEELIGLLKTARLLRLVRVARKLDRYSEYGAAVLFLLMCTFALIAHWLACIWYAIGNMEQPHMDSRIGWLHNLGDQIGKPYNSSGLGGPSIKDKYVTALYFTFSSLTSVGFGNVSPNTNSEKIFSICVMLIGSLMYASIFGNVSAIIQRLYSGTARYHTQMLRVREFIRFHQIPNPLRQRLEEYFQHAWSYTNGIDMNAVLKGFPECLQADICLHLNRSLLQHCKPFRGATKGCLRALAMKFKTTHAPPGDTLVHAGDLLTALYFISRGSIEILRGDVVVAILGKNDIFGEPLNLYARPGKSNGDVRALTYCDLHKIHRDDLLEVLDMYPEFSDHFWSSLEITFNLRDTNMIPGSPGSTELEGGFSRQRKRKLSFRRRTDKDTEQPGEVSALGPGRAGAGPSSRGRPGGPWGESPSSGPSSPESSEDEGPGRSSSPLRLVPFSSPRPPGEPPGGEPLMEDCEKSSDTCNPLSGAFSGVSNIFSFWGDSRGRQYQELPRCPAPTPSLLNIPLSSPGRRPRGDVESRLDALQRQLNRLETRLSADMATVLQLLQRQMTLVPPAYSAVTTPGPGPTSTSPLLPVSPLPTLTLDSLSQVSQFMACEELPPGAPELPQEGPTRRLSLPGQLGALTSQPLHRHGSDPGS

KCa1.1 (BK) = KCa1.1 (BK) (Homo sapiens, UniProt Q12791); assay: KCa1.1; format: cell-based; conditions: read-out: Percentage of current inhibition, KCa1.1 (BK)
Nav1.2 = Nav1.2 (Mus musculus, UniProt B1AWN6); assay: Nav1.2 current in N1E-115 cells, whole-cell patch-clamp; format: cell-based; conditions: N1E-115, read-out: Percentage of current inhibition, Nav1.2
Kv3.1 = Kv3.1 (Mus musculus, UniProt P15388); assay: Kv3.1 current, whole-cell patch-clamp; format: cell-based; conditions: read-out: Percentage of current inhibition, Kv3.1
Kv1.3 = Kv1.3 (Mus musculus, UniProt P16390); assay: Kv1.3 current, whole-cell patch-clamp; format: cell-based; conditions: read-out: Percentage of current inhibition, Kv1.3
KCa2.3 = KCa2.3 current, whole-cell patch-clamp; format: cell-based, human; conditions: 10 μM
Kv2.1 = Kv2.1 (Homo sapiens, UniProt Q14721); assay: Kv2.1 current, whole-cell patch-clamp; format: cell-based; conditions: read-out: Percentage of current inhibition, Kv2.1
Sequence of Kv2.1 (Q14721 whole entry): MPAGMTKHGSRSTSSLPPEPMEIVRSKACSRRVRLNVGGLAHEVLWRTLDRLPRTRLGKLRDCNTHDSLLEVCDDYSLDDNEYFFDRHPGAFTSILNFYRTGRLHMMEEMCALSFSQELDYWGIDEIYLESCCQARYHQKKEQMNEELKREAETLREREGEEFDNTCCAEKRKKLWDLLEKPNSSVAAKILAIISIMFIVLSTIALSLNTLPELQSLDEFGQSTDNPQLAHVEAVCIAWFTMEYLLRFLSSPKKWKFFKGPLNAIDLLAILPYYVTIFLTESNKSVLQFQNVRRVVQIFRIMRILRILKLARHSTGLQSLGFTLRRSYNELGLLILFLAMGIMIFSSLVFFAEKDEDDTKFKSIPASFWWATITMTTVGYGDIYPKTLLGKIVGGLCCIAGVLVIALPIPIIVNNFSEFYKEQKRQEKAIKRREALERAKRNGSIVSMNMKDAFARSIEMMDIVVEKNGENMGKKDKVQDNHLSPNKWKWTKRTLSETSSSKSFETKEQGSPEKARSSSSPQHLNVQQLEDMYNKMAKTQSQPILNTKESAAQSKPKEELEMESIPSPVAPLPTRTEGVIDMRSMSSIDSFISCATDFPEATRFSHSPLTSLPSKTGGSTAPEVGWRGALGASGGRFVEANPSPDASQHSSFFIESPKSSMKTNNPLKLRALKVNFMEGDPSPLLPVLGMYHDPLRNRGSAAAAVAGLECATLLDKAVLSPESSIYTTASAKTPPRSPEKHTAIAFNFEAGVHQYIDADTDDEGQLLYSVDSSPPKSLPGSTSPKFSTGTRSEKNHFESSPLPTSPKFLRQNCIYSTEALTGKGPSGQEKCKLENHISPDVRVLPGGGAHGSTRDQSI

potassium channels = assay: Summary of block of the tested potassium channels; format: cell-based; conditions: 10 μM; summary in discussion
[3] = tested on: primary lens epithelial cells; assay: Junctional currents between primary lens epithelial cells; format: cell-based, mouse; conditions: 10 μM; for reduction of junctional currents in lens epithelial cells, % of the initial conductance: mouse lenses postnatal day 6, means ± SEM
Nav1.4 = Nav1.4 (Homo sapiens, UniProt P35499); assay: Nav1.4 current, whole-cell patch-clamp; format: cell-based; conditions: 10 μM
Sequence of Nav1.4 (P35499 whole entry): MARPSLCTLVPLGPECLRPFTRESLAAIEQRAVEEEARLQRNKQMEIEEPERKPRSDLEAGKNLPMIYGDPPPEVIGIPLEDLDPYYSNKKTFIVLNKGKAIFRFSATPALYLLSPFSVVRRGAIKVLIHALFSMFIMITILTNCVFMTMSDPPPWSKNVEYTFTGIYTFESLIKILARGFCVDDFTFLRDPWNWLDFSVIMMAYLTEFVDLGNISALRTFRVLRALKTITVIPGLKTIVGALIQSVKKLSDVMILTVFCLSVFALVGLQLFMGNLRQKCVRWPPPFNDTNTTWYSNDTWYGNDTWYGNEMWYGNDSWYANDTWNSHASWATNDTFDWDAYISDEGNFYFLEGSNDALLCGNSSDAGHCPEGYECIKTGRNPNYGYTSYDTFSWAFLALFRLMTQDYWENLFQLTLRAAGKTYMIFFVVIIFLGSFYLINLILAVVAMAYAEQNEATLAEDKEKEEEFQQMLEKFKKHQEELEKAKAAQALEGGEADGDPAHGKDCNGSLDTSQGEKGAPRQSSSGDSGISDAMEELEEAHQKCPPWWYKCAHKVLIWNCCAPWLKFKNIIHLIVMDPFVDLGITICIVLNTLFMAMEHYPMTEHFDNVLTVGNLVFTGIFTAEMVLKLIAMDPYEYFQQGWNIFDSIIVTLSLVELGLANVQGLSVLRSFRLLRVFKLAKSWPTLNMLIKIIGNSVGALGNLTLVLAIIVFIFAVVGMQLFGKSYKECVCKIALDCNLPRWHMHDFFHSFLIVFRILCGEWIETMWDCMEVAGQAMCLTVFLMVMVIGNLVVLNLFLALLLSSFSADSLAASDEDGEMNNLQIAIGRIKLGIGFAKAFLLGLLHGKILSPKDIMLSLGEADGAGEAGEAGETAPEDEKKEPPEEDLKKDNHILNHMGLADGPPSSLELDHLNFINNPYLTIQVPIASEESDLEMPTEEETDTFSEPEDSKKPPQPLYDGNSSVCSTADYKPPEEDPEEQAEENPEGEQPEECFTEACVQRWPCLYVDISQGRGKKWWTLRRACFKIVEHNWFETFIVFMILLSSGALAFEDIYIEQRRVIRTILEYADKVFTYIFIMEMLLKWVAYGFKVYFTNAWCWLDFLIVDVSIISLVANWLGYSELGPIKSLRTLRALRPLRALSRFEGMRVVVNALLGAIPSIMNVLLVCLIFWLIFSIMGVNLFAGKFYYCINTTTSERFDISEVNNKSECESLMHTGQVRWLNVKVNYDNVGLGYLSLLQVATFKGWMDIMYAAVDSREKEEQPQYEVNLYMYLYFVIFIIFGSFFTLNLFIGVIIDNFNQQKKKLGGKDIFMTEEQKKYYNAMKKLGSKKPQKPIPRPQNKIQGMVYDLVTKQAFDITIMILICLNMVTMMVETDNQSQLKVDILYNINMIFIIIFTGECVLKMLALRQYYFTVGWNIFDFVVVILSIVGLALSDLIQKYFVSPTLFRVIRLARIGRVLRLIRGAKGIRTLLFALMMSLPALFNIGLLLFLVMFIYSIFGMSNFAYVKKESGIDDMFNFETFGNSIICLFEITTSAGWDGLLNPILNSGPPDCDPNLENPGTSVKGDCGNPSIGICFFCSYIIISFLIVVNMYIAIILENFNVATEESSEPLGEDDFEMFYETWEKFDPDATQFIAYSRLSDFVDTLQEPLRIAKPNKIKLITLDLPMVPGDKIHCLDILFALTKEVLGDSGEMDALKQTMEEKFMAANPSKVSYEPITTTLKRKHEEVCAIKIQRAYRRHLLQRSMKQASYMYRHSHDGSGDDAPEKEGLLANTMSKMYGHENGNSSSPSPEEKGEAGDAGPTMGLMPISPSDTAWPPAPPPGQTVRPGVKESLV

sodium channels = assay: Summary of block of the tested sodium channels; format: cell-based; conditions: 10 μM; summary in discussion
P2x7 receptors = conditions: read-out: IC50, P2x7 receptors; ref Suadicani et al., 2006; cited from earlier work
Cx26 hemichannel = conditions: read-out: IC50, Cx26 hemichannel currents; Xenopus oocytes; literature value; cited from earlier work
Cx38 hemichannel = conditions: read-out: IC50, Cx38 hemichannel currents; Xenopus oocytes; literature value; cited from earlier work
[4] = tested on: voltage-gated Ca^2+ currents; conditions: read-out: IC50, voltage-gated Ca2+ currents; ref Vessey et al., 2004; cited from earlier work
pannexin channels = conditions: read-out: IC50, pannexin channels; ref Locovei et al., 2007; cited from earlier work
[5] = target: 11β-hydroxysteroid dehydrogenase; conditions: read-out: IC50, 11β-hydroxysteroid dehydrogenase; ref Monder et al., 1989; cited from earlier work
[6] = IC50 KCa3.1, Table 1, mean ± SD

Sequence of Cx50 GJ channels (P28236 whole entry): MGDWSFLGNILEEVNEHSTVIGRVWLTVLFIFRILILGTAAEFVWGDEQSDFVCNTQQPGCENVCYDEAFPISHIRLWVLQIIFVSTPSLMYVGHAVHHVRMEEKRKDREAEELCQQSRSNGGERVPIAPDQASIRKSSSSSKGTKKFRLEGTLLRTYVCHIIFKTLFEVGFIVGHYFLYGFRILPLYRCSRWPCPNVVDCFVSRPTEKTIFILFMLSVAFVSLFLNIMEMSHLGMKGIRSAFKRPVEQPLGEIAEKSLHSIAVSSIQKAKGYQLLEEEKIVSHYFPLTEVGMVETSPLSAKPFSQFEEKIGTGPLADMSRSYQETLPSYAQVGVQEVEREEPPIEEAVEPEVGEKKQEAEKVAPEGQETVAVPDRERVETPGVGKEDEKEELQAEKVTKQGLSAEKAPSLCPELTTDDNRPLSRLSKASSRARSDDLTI

In the case of COc1ccc(CCN2CCC(Nc3nc4ccccc4n3Cc3ccc(F)cc3)CC2)cc1 [Astemizole, reference compound], the “reversibility of inhibition of Cx50 junctional currents upon washout” value (Cx50 GJ channels) is reported as “completely reversible” and the “effect on Cx50 junctional current” value (Cx50 GJ channels) is reported as “significant inhibition”.
For Clc1ccccc1C(c1ccccc1)(c1ccccc1)n1ccnc1 [Clotrimazole], the “effect on channels built out of Cx36” value [1] was “no effect”, the “inhibition of Cx46 GJ channel current / reduction of junction conductance” value (Cx46 GJ channels) was “no effect” and the “inhibition of Cx32 GJ channel current / reduction of junction conductance” value (Cx32 GJ channels) was “no effect”.
For OC(c1ccccc1)(c1ccccc1)c1ccc(Cl)cc1 [T1, (4-Chlorophenyl)diphenylmethanol], the IC50 (Cx50 GJ channels) was 2.8 µM and the IC50 (hKCa3.1; IC50 KCa3.1 (μM), Table A1) was 0.53 µM.
In the case of OC(c1ccccc1)(c1ccccc1)c1cccc(Cl)c1 [T2, (3-Chlorophenyl)diphenylmethanol], the IC50 (Cx50 GJ channels) is reported as 3.6 µM and the IC50 (hKCa3.1; IC50 KCa3.1 (μM), Table A1) is reported as 0.55 µM.
For OC(c1ccccc1)(c1ccccc1)c1ccncc1 [T50, diphenyl-4-pyridylmethanol], the IC50 (Cx50 GJ channels) was 10 µM and the IC50 (hKCa3.1) was > 50 µM.
In the case of O=C(O)CC(c1ccccc1)(c1ccccc1)c1ccccc1 [T51, 3,3,3-triphenylpropionic acid], the “IC50 Cx50 (μM)” value (Cx50 GJ channels) is reported as “No effect” and the IC50 (hKCa3.1; IC50 KCa3.1 (μM), Table A1) is reported as 25 µM.
For FC(F)(F)Oc1cccc(NC(c2ccccc2)(c2ccccc2)c2ccccc2Cl)c1 [T102, N-[(2-Chlorophenyl)diphenylmethyl]-3-(trifluoromethoxy)aniline], the “effect on Cx50 junctional current” value (Cx50 GJ channels) was “no effect”.
With FC(F)(F)Oc1ccccc1NC(c1ccccc1)(c1ccccc1)c1ccccc1Cl [T104, N-[(2-Chlorophenyl)diphenylmethyl]-2-(trifluoromethoxy)aniline] the “effect on Cx50 junctional current” value (Cx50 GJ channels) was “no effect”.
COc1ccc(NC(c2ccccc2)(c2ccccc2)c2ccccc2Cl)cc1 [T106, N-[(2-Chlorophenyl)diphenylmethyl]-4-methoxyaniline] gave an IC50 (Cx50 GJ channels) of 10 µM.
For Clc1ccccc1C(Oc1ccccc1)(c1ccccc1)c1ccccc1 [T107, 1-Chloro-2-(phenoxydiphenylmethyl)benzene], the “effect on Cx50 junctional current” value (Cx50 GJ channels) was “no effect”.
In the case of Clc1ccccc1C(Nc1ccccc1)(c1ccccc1)c1ccccc1 [T109, N-[(2-Chlorophenyl)diphenylmethyl]aniline], the “effect on Cx50 junctional current” value (Cx50 GJ channels) is reported as “no effect”.
In the case of COc1ccccc1C(O)(c1ccccc1)c1ccccc1 [T117, (2-Methoxyphenyl)diphenylmethanol], the “IC50 Cx50 (μM)” value (Cx50 GJ channels) is reported as “No effect”.
For COc1ccccc1C(Nc1nccs1)(c1ccccc1)c1ccccc1 [T122, N-[(2-Methoxyphenyl)diphenylmethyl]-1,3-thiazol-2-amine], the IC50 (Cx50 GJ channels) was 1.2 µM, the “selectivity over other connexins as well as major neuronal and cardiac voltage-gated K+ and Na+ channels” value (Cx50 GJ channels) was “at least 10 fold” and the “Hill slope / Hill coefficient of Cx50 inhibition” value (Cx50 GJ channels) was 1.6. The “inhibition of Cx26 GJ channel current / reduction of junction conductance” value (Cx26 GJ channels) was “no significant effect”, the inhibition at 10 µM (Kv4.2) was 16 ± 4% and the “Percentage of current inhibition, Kv7.2/7.3” value (Kv7.2/7.3) was “No effect (n = 3)”. The inhibition at 10 µM (Kv1.1) was 65 ± 10%, the “effect on Cx45 gap junction channels” value [2] was “no significant effect” and the “inhibition of Cx32 GJ channel current / reduction of junction conductance” value (Cx32 GJ channels) was “no significant effect”. For the same compound, the inhibition at 10 µM (Kv11.1 (hERG)) was 42 ± 3%, the inhibition at 10 µM (KCa1.1 (BK)) was 43 ± 4% and the IC50 (hKCa3.1; [6]) was 10.2 µM. The IC50 (hKCa3.1; IC50 KCa3.1, running text) was 10 µM, the inhibition at 10 µM (Nav1.2) was 11 ± 1% and the inhibition at 10 µM (Kv3.1) was 32 ± 12%. The inhibition at 10 µM (Kv1.3) was 52 ± 2%, the “Percentage of current inhibition, KCa2.3” value (KCa2.3) was “No effect (n = 3)” and the inhibition at 10 µM (Kv2.1) was 28 ± 4%. For the same compound, the “inhibition of most of the tested potassium channels” value (potassium channels) was 18–43%, the “reversibility of reduction of junctional currents on washout” value [3] was “reversible” and the “reduction of junctional currents in lens epithelial cells, % of the initial conductance” value [3] was 67 ± 9%. For the same compound, the “Percentage of current inhibition, Nav1.4” value (Nav1.4) was “No effect (n = 3)” and the “inhibition of sodium channels” value (sodium channels) was < 11%.
With Ic1ccccc1C(Nc1nccs1)(c1ccccc1)c1ccccc1 [T136, N-[(2-Iodophenyl)diphenylmethyl]-1,3-thiazol-2-amine] the IC50 (Cx50 GJ channels) was 2.4 µM, the “selectivity over other connexins as well as major neuronal and cardiac voltage-gated K+ and Na+ channels” value (Cx50 GJ channels) was “at least 10 fold” and the “Hill slope / Hill coefficient of Cx50 inhibition” value (Cx50 GJ channels) was 1.7. The “inhibition of Cx26 GJ channel current / reduction of junction conductance” value (Cx26 GJ channels) was “no significant effect”, the inhibition at 10 µM (Kv4.2) was 15 ± 3% and the “Percentage of current inhibition, Kv7.2/7.3” value (Kv7.2/7.3) was “No effect (n = 2)”. For the same compound, the inhibition at 10 µM (Kv1.1) was 28 ± 9%, the “effect on Cx45 gap junction channels” value [2] was “no significant effect” and the “inhibition of Cx32 GJ channel current / reduction of junction conductance” value (Cx32 GJ channels) was “no significant effect”. For the same compound, the inhibition at 10 µM (Kv11.1 (hERG)) was 27 ± 4%, the inhibition at 10 µM (KCa1.1 (BK)) was 26 ± 2% and the IC50 (hKCa3.1; [6]) was 1.3 µM. For the same compound, the inhibition at 10 µM (Nav1.2) was 9 ± 0.5%, the inhibition at 10 µM (Kv3.1) was 37 ± 16% and the inhibition at 10 µM (Kv1.3) was 18 ± 4%. For the same compound, the “Percentage of current inhibition, KCa2.3” value (KCa2.3) was “No effect (n = 3)”, the inhibition at 10 µM (Kv2.1) was 28 ± 4% and the “inhibition of most of the tested potassium channels” value (potassium channels) was 18–43%. For the same compound, the “reversibility of reduction of junctional currents on washout” value [3] was “reversible”, the “reduction of junctional currents in lens epithelial cells, % of the initial conductance” value [3] was 64 ± 8% and the “Percentage of current inhibition, Nav1.4” value (Nav1.4) was “No effect (n = 3)”. The “inhibition of sodium channels” value (sodium channels) was < 11%.
With FC(F)(F)Oc1ccc(NC(c2ccccc2)(c2ccccc2)c2ccccc2Cl)cc1 [T150, N-[(2-Chlorophenyl)diphenylmethyl]-4-(trifluoromethoxy)aniline] the “effect on Cx50 junctional current” value (Cx50 GJ channels) was “no effect”.
For Nc1ccccc1C(O)(c1ccccc1)c1ccccc1 [T154-OH, (2-Aminophenyl)diphenylmethanol], the “IC50 Cx50 (μM)” value (Cx50 GJ channels) was “No effect”.
c1ccc(C(c2ccccc2)c2ccncc2)cc1 [T160, diphenyl-4-pyridylmethane] gave an IC50 (Cx50 GJ channels) of 4 µM and an IC50 (hKCa3.1) of 8.6 µM.
With COc1ccccc1C(O)(c1ccccc1)c1ccccc1OC [T165, Bis-(2-methoxyphenyl)(phenyl)methanol] the “IC50 Cx50 (μM)” value (Cx50 GJ channels) was “No effect”.
c1ccc(C(c2ccccc2)c2ccccc2)cc1 [Triphenylmethane, triphenylmethane] showed an IC50 (Cx50 GJ channels) of 0.9 µM and an IC50 (hKCa3.1; IC50 KCa3.1 (μM), Table A1) of 3.7 µM.
Compound OC(c1ccccc1)(c1ccccc1)c1ccccc1 [Triphenylmethanol, triphenylmethanol] has an IC50 (Cx50 GJ channels) of 1 µM and an IC50 (hKCa3.1; IC50 KCa3.1 (μM), Table A1) of 0.5 µM.
In the case of CC1(C)[C@@H](OC(=O)CCC(=O)O)CC[C@]2(C)[C@H]3C(=O)C=C4[C@@H]5C[C@@](C)(C(=O)O)CC[C@]5(C)CC[C@@]4(C)[C@]3(C)CC[C@@H]12 [carbenoxolone], the IC50 (P2x7 receptors) is given as 0.175 µM, the IC50 (Cx26 hemichannel) is given as 21 µM and the IC50 (Cx38 hemichannel) is given as 34 µM. The IC50 [4] was 48 µM, the IC50 (pannexin channels) was 2 to 5 µM and the IC50 [5] was ~5 µM.
In the case of O=c1c(O)c(-c2ccc(O)c(O)c2)oc2cc(O)cc(O)c12 [quercetin, reference compound], the “effect on Cx50 junctional current” value (Cx50 GJ channels) is reported as “no effect”.
With C[C@@H]1O[C@@H](OC[C@H]2O[C@@H](Oc3c(-c4ccc(O)c(O)c4)oc4cc(O)cc(O)c4c3=O)[C@H](O)[C@@H](O)[C@@H]2O)[C@H](O)[C@H](O)[C@H]1O [rutin, reference compound] the “reversibility of inhibition of Cx50 junctional currents upon washout” value (Cx50 GJ channels) was “only partially reversible” and the “effect on Cx50 junctional current” value (Cx50 GJ channels) was “significant inhibition”.

Reference: paper PMC3368247 (Frontiers in Pharmacology, 2012)
